Patent EP0065874A1, “2-Aminophenol derivatives, methods for their preparation and composition containing the same” (ONO PHARMACEUTICAL CO., LTD., priority 1981, dated 1982)
Where a name gives a salt, the structure may show the parent alone.

Tested on: cyclooxygenase
Experiment: Standard assay system using polymorphonuclear leukocytes: inhibition of HHT or TXB2 production from [1-14C] arachidonic acid
Format: cell-based
Details: polymorphonuclear leukocytes from guinea pig (4 x 10^7 cells), 5 minutes at 30°C, read-out: concentrations for 50% inhibitions on cyclooxygenase
Procedure: The experiments for screening using polymorphonuclear leukocytes was carried out as follows: The reaction mixture (0.1 ml) containing 5 umole of potassium phosphate at pH 7.4, 0.1 µmole of calsium chloride, polymorphonuclear leukocytes prepared from guinea pigs (4 x 10^7 cells) and test compound was preincubated for 5 minutes at 30°C. The reaction was started by the addition of [^1-14C] arachidonic acid ([…] dpm, 1.8 nmole), followed by the incubation at 30°C for 5 minutes. The reaction was terminated by the addition of 0.3 ml of mixture of ether/ methanol/lM citric acid (30/4/1). The organic phase (20 µl) was applied to silica gel plate. Thin layer chromatography was performed to separate each product with solvent system of ether/petroleum ether/acetic acid (85/15/0.1).
Activity of 5-lipoxygenase and cyclooxygenase were calculated from the measurement of the radioactivity corresponding to 5-HETE and 12L-hydroxy-5,8,10-heptareienoic acid (i.e. HHT) or thromboxane B2 (i.e. TXB2). [it have been known that HHT and TXB2 were the last products of the system concerning cyclooxygenase in the arachidonate cascade] Further, it was determined that the concentrations of 50% inhibitions to produce 5-HETE and HHT or TXB2 for the 50% inhibiting concentrations of 5-lipoxygenase and cyclooxygenase, respectively.

Structure (SMILES)	IC50 [µM]
Nc1cc(F)cc(C(O)c2ccc(Cl)cc2)c1O (stereo not drawn) [3-Amino-4'-chloro-5-fluoro-2-hydroxybenzhydrol hydrochloride]	7.2
Nc1cc(F)cc(C(=O)c2ccc(Cl)cc2)c1O [3-Amino-4'-chloro-5-fluoro-2-hydroxybenzophenona]	2
Nc1cc(Cl)cc(C(=O)c2ccc(Cl)cc2)c1O [3-Amino-5,4'-dichloro-2-hydroxybenzophenone]	3
CC(C)(C)c1cc(N)c(O)c(C(O)c2ccc(Cl)cc2)c1 (stereo not drawn) [3-Amino-5-t-butyl-4'-chloro-2-hydroxybenzhydrol hydrochloride]	100

Tested on: mice
Experiment: Acute toxicity by intravenous injection
Format: in vivo
Details: intravenous injection to tail vein, doses of 10 mg/Kg and 30 mg/Kg
Procedure: On the other hand, all extent of the compounds of the present invention were confirmed that their acute toxicities were more than 30 mg/Kg by intravenous injection. Therefore, the compounds of the present invention may be considered to be sufficiently safe and suitable for medical use.

Structure (SMILES)	dead case in 30 cases
CCCCCCC(O)c1cc(C(C)(C)C)cc(N)c1O (stereo not drawn) [2-Amino-4-t-butyl-6-(1-hydroxyheptyl)phenol]	no dead case
COc1ccc(C(=O)c2cc(Cl)cc(N)c2O)cc1.Cl [3-Amino-5-chloro-2-hydroxy-4'-methoxybenzophenone hydrochloride]	no dead case
